Measurements as given in ChEMBL document CHEMBL5727865, “4,6-substituted-pyrazolo[1,5-a]pyrazines as Janus kinase inhibitors” (2020).

How the values were obtained:
[1] = molecular target: Tyrosine-protein kinase JAK2 (Homo sapiens, UniProt O60674); assay: (§1) JAK2 Inhibition Assay: Compounds of Formula I were screened for their ability to inhibit JAK2 using the general enzyme inhibition assay method, in which the assay mixture contained 1 mM ATP, 10 μM Omnia Y7 peptide (Catalog # IVGN KNZ3071C, Invitrogen Corporation, Carlsbad, Calif.) and 4 nM JAK2 in a total volume of 25 μL. JAK2 was purchased from Invitrogen Corporation, Carlsbad, Calif. (catalog # IVGN PV4288).
[2] = molecular target: Tyrosine-protein kinase JAK1 (Homo sapiens, UniProt P23458); assay: as §1, with “JAK1” for “JAK2”, “8” for “10”, “Y12” for “Y7”, “KPZ3121C;” for “KNZ3071C,”, “12.5” for “4”, “PV4775).” for “PV4288).”
Chain of Tyrosine-protein kinase JAK1 (P23458 whole entry): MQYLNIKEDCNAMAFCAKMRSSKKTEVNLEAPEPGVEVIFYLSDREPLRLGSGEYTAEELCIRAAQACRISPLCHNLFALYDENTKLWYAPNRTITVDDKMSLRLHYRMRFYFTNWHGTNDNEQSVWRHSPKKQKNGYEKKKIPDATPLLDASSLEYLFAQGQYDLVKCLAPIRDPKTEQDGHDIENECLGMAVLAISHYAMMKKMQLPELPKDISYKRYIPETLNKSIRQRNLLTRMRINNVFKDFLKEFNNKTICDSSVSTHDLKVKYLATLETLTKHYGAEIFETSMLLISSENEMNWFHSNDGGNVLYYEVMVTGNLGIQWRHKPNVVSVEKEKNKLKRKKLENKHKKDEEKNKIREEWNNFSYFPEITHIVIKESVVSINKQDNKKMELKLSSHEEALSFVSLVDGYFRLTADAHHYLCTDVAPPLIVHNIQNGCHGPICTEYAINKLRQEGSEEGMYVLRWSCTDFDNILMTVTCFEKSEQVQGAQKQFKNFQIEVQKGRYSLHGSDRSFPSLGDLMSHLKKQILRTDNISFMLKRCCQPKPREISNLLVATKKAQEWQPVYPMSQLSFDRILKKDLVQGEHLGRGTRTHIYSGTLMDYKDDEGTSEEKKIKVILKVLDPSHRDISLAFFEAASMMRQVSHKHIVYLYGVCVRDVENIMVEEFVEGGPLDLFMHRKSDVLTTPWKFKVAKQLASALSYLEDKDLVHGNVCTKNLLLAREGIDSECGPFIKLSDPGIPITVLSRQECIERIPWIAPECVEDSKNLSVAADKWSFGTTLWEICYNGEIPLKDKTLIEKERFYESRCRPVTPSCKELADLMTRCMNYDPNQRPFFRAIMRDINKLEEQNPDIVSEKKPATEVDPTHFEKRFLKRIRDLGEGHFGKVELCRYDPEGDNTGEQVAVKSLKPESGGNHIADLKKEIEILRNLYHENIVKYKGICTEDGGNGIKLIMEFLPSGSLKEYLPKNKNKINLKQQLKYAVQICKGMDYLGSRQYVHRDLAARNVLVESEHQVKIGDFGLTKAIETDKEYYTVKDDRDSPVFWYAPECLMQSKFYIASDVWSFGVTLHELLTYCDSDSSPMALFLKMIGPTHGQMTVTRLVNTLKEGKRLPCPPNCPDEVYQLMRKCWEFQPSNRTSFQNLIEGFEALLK

Chain of Tyrosine-protein kinase JAK2 (O60674 whole entry): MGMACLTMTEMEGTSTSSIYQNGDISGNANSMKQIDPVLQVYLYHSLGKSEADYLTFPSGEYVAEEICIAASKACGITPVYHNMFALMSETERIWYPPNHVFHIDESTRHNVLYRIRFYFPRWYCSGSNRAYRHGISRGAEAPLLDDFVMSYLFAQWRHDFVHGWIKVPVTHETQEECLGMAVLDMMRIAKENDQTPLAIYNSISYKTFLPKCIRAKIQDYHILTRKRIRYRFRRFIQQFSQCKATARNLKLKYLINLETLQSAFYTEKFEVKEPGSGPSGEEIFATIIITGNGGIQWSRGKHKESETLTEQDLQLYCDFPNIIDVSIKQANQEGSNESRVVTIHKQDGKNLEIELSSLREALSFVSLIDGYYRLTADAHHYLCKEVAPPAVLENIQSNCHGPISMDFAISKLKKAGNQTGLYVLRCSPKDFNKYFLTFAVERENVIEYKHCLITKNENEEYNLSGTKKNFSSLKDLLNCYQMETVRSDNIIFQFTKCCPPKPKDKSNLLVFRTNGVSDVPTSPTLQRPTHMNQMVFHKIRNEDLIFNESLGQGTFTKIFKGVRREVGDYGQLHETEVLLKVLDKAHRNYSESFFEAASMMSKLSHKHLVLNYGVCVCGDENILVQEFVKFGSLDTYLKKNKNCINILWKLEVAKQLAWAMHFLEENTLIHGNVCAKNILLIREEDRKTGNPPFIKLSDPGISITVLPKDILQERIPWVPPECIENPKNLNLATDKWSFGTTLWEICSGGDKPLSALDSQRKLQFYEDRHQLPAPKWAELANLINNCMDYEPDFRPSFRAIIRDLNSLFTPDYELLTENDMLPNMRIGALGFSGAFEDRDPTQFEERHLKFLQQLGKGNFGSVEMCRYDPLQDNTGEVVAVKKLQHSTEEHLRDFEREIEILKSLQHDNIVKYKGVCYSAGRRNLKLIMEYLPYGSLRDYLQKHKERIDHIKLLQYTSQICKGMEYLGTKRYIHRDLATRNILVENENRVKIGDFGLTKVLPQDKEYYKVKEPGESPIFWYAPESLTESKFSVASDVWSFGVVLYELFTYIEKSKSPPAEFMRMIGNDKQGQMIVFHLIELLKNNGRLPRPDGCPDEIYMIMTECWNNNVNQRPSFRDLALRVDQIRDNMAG

IC50 [1] [nM] | IC50 [2] | SMILES
< 10 |  | CCC(CC)n1cc(-c2nc(-c3cnn([C@H]4C[C@@H](O)[C@@H](O)C4)c3)cn3nccc23)cn1
 | in the range around 5500 nM | CCC(CC)n1cc(-c2nc(-c3cnn([C@H]4C[C@@](O)(CO)C4)c3)cn3nccc23)cn1
